Patent US20150133297A1, “NEW ANTIFUNGAL COMPOSITIONS” (DSM IP ASSETS B.V., priority 2012, published 2015)
“And” between values parts separate entries of the source, which are not always exact repeats. Identical values can stand only once.

Assays:
[1] = tested on: Penicillium italicum; assay: Treatment of oranges (Examples 6-9): wounded, inoculated, wound treated with antifungal composition; format: in vivo; conditions: for Observed antifungal activity O (%): oranges, 20° C.
Protocol: During incubation, mould growth on the strawberries was assessed in a twofold manner: (i) the number of moulded strawberries per total of 12 strawberries was counted; and (ii) the antifungal activity (in %) of the individual and combined active ingredients was determined by calculating the reduction in mould growth observed on the strawberries treated with the antifungal composition in comparison to the mould growth on the strawberries treated with the control composition. The expected antifungal activity (E in %) of the combined antifungal composition comprising both active ingredients was calculated according to the Colby equation (Colby, 1967): […]
Eight fresh, organic oranges were used per treatment. Each orange was soaked in a 180 ppm hypochlorite solution for 10 minutes, then rinsed thoroughly with fresh tap water and dried. The peel of each disinfected orange was wounded once using a cork borer according to the method described by de Lapeyre de Bellaire and Dubois (1987). Subsequently, each wound was inoculated with 10 μl of a Penicillium italicum suspension containing 5×10^5 of spores/ml. After incubation for 3 hours at 20° C., each wound and the orange peel area of 1 cm around the wound was treated with in total 150 μl of a freshly prepared aqueous antifungal composition comprising either 500 ppm natamycin (DSM Food Specialties, Delft, The Netherlands), 500 ppm fenpropidin or both. Each antifungal composition also comprised 3.2% (w/w) beeswax, 0.8% (w/w) glycerol, 0.7% (w/w) polyoxyethylene sorbitan monostearate (Tween 60), 0.1% (w/w) polyoxyethylene sorbitan monooleate (Tween 80), 0.05% (w/w) methylhydroxyethyl-cellulose (MHEC), 0.03% (w/w) anti-foaming agent, 0.02% (w/w) xanthan gum, 0.02% (w/w) citric acid, 0.01% (w/w) lactic acid and 0.01% potassium sorbate. A composition without natamycin or fenpropidin was used as control. […] The treated oranges were incubated in a closed box in the dark at 20° C. and assessed on mould growth during a 28-day incubation period. The antifungal activity (in %) of the individual and combined active ingredients was determined by calculating the reduction in mould growth observed on the oranges treated with the antifungal composition in comparison to the mould growth on the oranges treated with the control composition according to the Colby method (Colby, 1967) as described in Example 5.
The experiment was conducted as described in Example 6, except for the fact that each wounded and inoculated orange was treated with 150 μl of a freshly prepared aqueous antifungal composition comprising either 250 ppm natamycin (DSM Food Specialties, Delft, The Netherlands), 250 ppm fenpropidin or both. During the 26-day incubation period, the treated oranges were assessed on mould growth according to the two methods described in Example 5.
The experiment was conducted as described in Example 6, except for the fact that each wounded and inoculated orange was treated with 150 μl of a freshly prepared aqueous antifungal composition comprising either 500 ppm natamycin (DSM Food Specialties, Delft, The Netherlands), 400 ppm spiroxamine or both. During the 26-day incubation period, the treated oranges were assessed on mould growth according to the two methods described in Example 5.
The experiment was conducted as described in Example 6, except for the fact that each wounded and inoculated orange was treated with 150 μl of a freshly prepared aqueous antifungal composition comprising either 250 ppm natamycin (DSM Food Specialties, Delft, The Netherlands), 200 ppm spiroxamine or both. During the 26-day incubation period, the treated oranges were assessed on mould growth according to the two methods described in Example 5.

[2] = tested on: Botrytis cinerea; assay: Treatment of strawberries (Example 5): wounded, inoculated, dipped in antifungal composition; format: in vivo; conditions: 500 ppm natamycin, 600 ppm fenpropidin or both; for Observed antifungal activity O (%): strawberries, 20° C.
Protocol: Twelve fresh, organic strawberries were used per treatment. Each strawberry was wounded with a 0.5 mm long cut and each wound was inoculated with 10 μl of a Botrytis cinerea suspension containing 1×10^5 of spores/ml. […] A composition without natamycin or fenpropidin was used as control. […] The treated strawberries were incubated in a closed box in the dark at 20° C. for 9 days. During incubation, mould growth on the strawberries was assessed in a twofold manner: […] The expected antifungal activity (E in %) of the combined antifungal composition comprising both active ingredients was calculated according to the Colby equation (Colby, 1967): […] wherein X and Y are the observed antifungal activities (in %) of the individual active ingredients X and Y, respectively.

## CC(Cc1ccc(C(C)(C)C)cc1)CN1CCCCC1 (stereo not drawn) [Fenpropidin, fenpropidin]
[1]; Day 18, 20° C., 250 ppm natamycin, 250 ppm fenpropidin or both
  Number of moulded oranges/total number of 8 oranges: 6/8
[1]; Day 19, 20° C., 250 ppm natamycin, 250 ppm fenpropidin or both
  Number of moulded oranges/total number of 8 oranges: 6/8
[1]; Day 20, 20° C., 250 ppm natamycin, 250 ppm fenpropidin or both
  Number of moulded oranges/total number of 8 oranges: 7/8
[1]; Day 21-22, 20° C., 250 ppm natamycin, 250 ppm fenpropidin or both
  Number of moulded oranges/total number of 8 oranges: 7 and 7/8
[1]; Day 23-26, 20° C., 250 ppm natamycin, 250 ppm fenpropidin or both
  Number of moulded oranges/total number of 8 oranges: 7 and 7/8
[1]; day 18, 250 ppm natamycin, 250 ppm fenpropidin or both
  Observed antifungal activity O (%): 59%
[1]; day 19, 250 ppm natamycin, 250 ppm fenpropidin or both
  Observed antifungal activity O (%): 50%
[1]; day 20, 250 ppm natamycin, 250 ppm fenpropidin or both
  Observed antifungal activity O (%): 43%
[1]; day 21, 250 ppm natamycin, 250 ppm fenpropidin or both
  Observed antifungal activity O (%): 38%
[1]; day 22, 250 ppm natamycin, 250 ppm fenpropidin or both
  Observed antifungal activity O (%): 30%
[1]; day 22, 500 ppm natamycin, 500 ppm fenpropidin or both
  Observed antifungal activity O (%): 94%
[1]; day 23, 250 ppm natamycin, 250 ppm fenpropidin or both
  Observed antifungal activity O (%): 16%
[1]; day 23, 500 ppm natamycin, 500 ppm fenpropidin or both
  Observed antifungal activity O (%): 89%
[1]; day 25, 250 ppm natamycin, 250 ppm fenpropidin or both
  Observed antifungal activity O (%): 4%
[1]; day 25, 500 ppm natamycin, 500 ppm fenpropidin or both
  Observed antifungal activity O (%): 84%
[1]; day 26, 250 ppm natamycin, 250 ppm fenpropidin or both
  Observed antifungal activity O (%): 0%
[1]; day 26, 500 ppm natamycin, 500 ppm fenpropidin or both
  Observed antifungal activity O (%): 81%
[1]; day 27, 500 ppm natamycin, 500 ppm fenpropidin or both
  Observed antifungal activity O (%): 80%
[1]; day 28, 500 ppm natamycin, 500 ppm fenpropidin or both
  Observed antifungal activity O (%): 75%
[2]; Day 5, 20° C.
  Number of moulded strawberries/total number of 12 strawberries: 12 and 12/12
[2]; Day 6, 20° C.
  Number of moulded strawberries/total number of 12 strawberries: 12 and 12/12
[2]; day 4
  Observed antifungal activity O (%): 0%
[2]; day 5
  Observed antifungal activity O (%): 0%
[2]; day 6
  Observed antifungal activity O (%): 0%
[2]; day 7
  Observed antifungal activity O (%): 0%
[2]; day 8
  Observed antifungal activity O (%): 0%
[2]; day 9
  Observed antifungal activity O (%): 0%
